Legend:
Gaeumannomyces graminis = Gaeumannomyces graminis / liquid culture (take-all of cereals); assay type: cell-based; settings: growth inhibition photometrically 4-5 days after application, compared to untreated control
How it was run: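 Mycelial fragments from cryogenic storage in potato dextrose broth added to compound in DMSO, 96-well format. Incubated at 24° C; growth inhibition read photometrically 4-5 days after application.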

[1] = system: Glomerella lagenarium (Colletotrichum lagenarium); test: Glomerella lagenarium (Colletotrichum lagenarium) / liquid culture (anthracnose); assay type: cell-based; settings: Colletotrichum orbiculare, growth inhibition photometrically 3-4 days after application, compared to untreated control
Method: (§1) 3. Glomerella lagenarium (Colletotrichum lagenarium)/Liquid Culture (Anthracnose) Conidia of the fungus from cryogenic storage are directly mixed into nutrient broth (PDB potato dextrose broth). After placing a (DMSO) solution of test compound into a microtiter plate (96-well format), the nutrient broth containing the fungal spores is added. The test plates are incubated at 24° C. and the inhibition of growth is measured photometrically 3-4 days after application.

[2] = system: Monographella nivalis (Microdochium nivale); test: Monographella nivalis (Microdochium nivale) / liquid culture (foot rot cereals); assay type: cell-based; settings: growth inhibition photometrically 4-5 days after application, compared to untreated control
How it was run: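 Conidia from cryogenic storage were mixed into potato dextrose broth and added to wells holding test compound in DMSO. Incubation was at 24° C, with growth inhibition measured photometrically 4-5 days after application.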

Pythium ultimum = Pythium ultimum / liquid culture (seedling damping off); assay type: cell-based; settings: Globisporangium ultimum, growth inhibition photometrically 2-3 days after application, compared to untreated control
How it was run: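 Fungal mycelia fragments and oospores from fresh liquid culture mixed into potato dextrose broth and added to DMSO solutions of test compound. Incubated at 24° C.; growth inhibition read photometrically 2-3 days after application.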

[3] = system: Mycosphaerella graminicola (Septoria tritici); test: Mycosphaerella graminicola (Septoria tritici) / liquid culture (Septoria blotch); assay type: cell-based; settings: Zymoseptoria tritici, growth inhibition photometrically 4-5 days after application, compared to untreated control
Method: as §1, with “18. Mycosphaerella graminicola (Septoria tritici)/Liquid” for “3. Glomerella lagenarium (Colletotrichum lagenarium)/Liquid”, “(Septoria Blotch)” for “(Anthracnose)”, “determined” for “measured”, “4-5” for “3-4”

Phytophthora infestans = test: whole plant or invertebrate; assay type: in vivo; settings: in Solanum lycopersicum, foliar, read-out: control of Phytophthora infestans
[4] = system: Thanatephorus cucumeris (Rhizoctonia solani); test: Thanatephorus cucumeris (Rhizoctonia solani) / liquid culture (foot rot, damping-off); assay type: cell-based; settings: growth inhibition photometrically 3-4 days after application, compared to untreated control
Method: 16. Thanatephorus cucumeris (Rhizoctonia solani)/Liquid Culture (Foot Rot, Damping-Off) Mycelia fragments of a newly grown liquid culture of the fungus are directly mixed into nutrient broth (PDB potato dextrose broth). After placing a (DMSO) solution of the test compounds into a microtiter plate (96-well format), the nutrient broth containing the fungal material is added. The test plates are incubated at 24° C. and the inhibition of growth is determined photometrically 3-4 days after application.

[5] = system: Mycosphaerella arachidis (Cercospora arachidicola); test: Mycosphaerella arachidis (Cercospora arachidicola) / liquid culture (early leaf spot); assay type: cell-based; settings: growth inhibition photometrically 4-5 days after application, compared to untreated control
Method: as §1, with “9. Mycosphaerella arachidis (Cercospora arachidicola)/Liquid” for “3. Glomerella lagenarium (Colletotrichum lagenarium)/Liquid”, “(Early Leaf Spot)” for “(Anthracnose)”, “determined” for “measured”, “4-5” for “3-4”

Sclerotinia sclerotiorum = Sclerotinia sclerotiorum / liquid culture (cottony rot); assay type: cell-based; settings: growth inhibition photometrically 3-4 days after application, compared to untreated control
Method: 17. Sclerotinia sclerotiorum/Liquid Culture (Cottony Rot) Mycelia fragments of a newly grown liquid culture of the fungus are directly mixed into nutrient broth (PDB potato dextrose broth). After placing a (DMSO) solution of test compound into a microtiter plate (96-well format) the nutrient broth containing the fungal material is added. The test plates are incubated at 24° C. and the inhibition of growth is determined photometrically 3-4 days after application.

[6] = system: Puccinia recondite f. sp. tritici; test: Puccinia recondite f. sp. tritici / wheat / leaf disc preventative (brown rust); assay type: in vivo; settings: foliar, wheat leaf segments, inoculated 1 day after application, compared to untreated control
Method: 13. Puccinia recondite f. Sp. Tritici/Wheat/Leaf Disc Preventative (Brown Rust) Wheat leaf segments cv. Kanzler are placed on agar in multiwell plates (24-well format) and sprayed with the formulated test compound diluted in water. The leaf disks are inoculated with a spore suspension of the fungus 1 day after application. The inoculated leaf segments are incubated at 19° C. and 75% rh under a light regime of 12 h light/12 h darkness in a climate cabinet and the activity of a compound is assessed as percent disease control compared to untreated when an appropriate level of disease damage appears in untreated check leaf segments (7-9 days after application).

Compound: COc1c(C(=O)OCC(F)F)ccc2c1B(O)OC2 [Compound 12, 2,2-difluoroethyl 1-hydroxy-7-methoxy-3H-2,1-benzoxaborole-6-carboxylate]
- inhibition of growth at 20 ppm (Gaeumannomyces graminis): ≥ 80%
- inhibition of growth at 20 ppm [1]: ≥ 80%
- inhibition of growth at 20 ppm [2]: ≥ 80%
- inhibition of growth at 20 ppm (Pythium ultimum): ≥ 80%
- inhibition of growth at 20 ppm [3]: ≥ 80%
- pest or weed control at 200 ppm (Phytophthora infestans): ≥ 80%

Compound: COC(=O)c1ccc2c(c1O)B(O)OC2 [Compound 2, methyl 1,7-dihydroxy-3H-2,1-benzoxaborole-6-carboxylate]
- inhibition of growth at 20 ppm (Gaeumannomyces graminis): ≥ 80%
- inhibition of growth at 20 ppm [1]: ≥ 80%
- inhibition of growth at 20 ppm [2]: ≥ 80%
- inhibition of growth at 20 ppm [4]: ≥ 80%
- inhibition of growth at 20 ppm [5]: ≥ 80%
- inhibition of growth at 20 ppm (Pythium ultimum): ≥ 80%
- melting point: 146 to 148 °C
- inhibition of growth at 20 ppm (Sclerotinia sclerotiorum): ≥ 80%
- inhibition of growth at 20 ppm [3]: ≥ 80%
- pest or weed control at 200 ppm (Phytophthora infestans): ≥ 80%

Compound: COC(=O)c1ccc2c(c1OC)B(O)OC2 [Compound 1, methyl 1-hydroxy-7-methoxy-3H-2,1-benzoxaborole-6-carboxylate]
- inhibition of growth at 20 ppm (Gaeumannomyces graminis): ≥ 80%
- inhibition of growth at 20 ppm [1]: ≥ 80%
- inhibition of growth at 20 ppm [2]: ≥ 80%
- inhibition of growth at 20 ppm [4]: ≥ 80%
- inhibition of growth at 20 ppm [5]: ≥ 80%
- inhibition of growth at 20 ppm (Pythium ultimum): ≥ 80%
- inhibition of growth at 20 ppm (Sclerotinia sclerotiorum): ≥ 80%
- inhibition of growth at 20 ppm [3]: ≥ 80%
- pest or weed control at 200 ppm (Phytophthora infestans): ≥ 80%

Compound: COc1c(C(=O)OCn2nc(C)cc2C)ccc2c1B(O)OC2 [Compound 103, (3,5-dimethylpyrazol-1-yl)methyl 1-hydroxy-7-methoxy-3H-2,1-benzoxaborole-6-carboxylate]
- inhibition of growth at 20 ppm (Gaeumannomyces graminis): ≥ 80%
- inhibition of growth at 20 ppm (Pythium ultimum): ≥ 80%
- pest or weed control at 200 ppm (Phytophthora infestans): ≥ 80%

Compound: COC(=O)c1ccc2c(c1Cl)B(O)OC2 [Compound 3, methyl 7-chloro-1-hydroxy-3H-2,1-benzoxaborole-6-carboxylate]
- pest or weed control at 200 ppm [6]: ≥ 80%
- inhibition of growth at 20 ppm [1]: ≥ 80%
- inhibition of growth at 20 ppm [2]: ≥ 80%
- inhibition of growth at 20 ppm [4]: ≥ 80%
- inhibition of growth at 20 ppm [5]: ≥ 80%
- inhibition of growth at 20 ppm (Pythium ultimum): ≥ 80%
- inhibition of growth at 20 ppm (Sclerotinia sclerotiorum): ≥ 80%
- inhibition of growth at 20 ppm [3]: ≥ 80%
- pest or weed control at 200 ppm (Phytophthora infestans): ≥ 80%

Compound: CCN(CC)C(=O)COC(=O)c1ccc2c(c1OC)B(O)OC2 [Compound 94, [2-(diethylamino)-2-oxo-ethyl] 1-hydroxy-7-methoxy-3H-2,1-benzoxaborole-6-carboxylate]
- inhibition of growth at 20 ppm (Gaeumannomyces graminis): ≥ 80%
- inhibition of growth at 20 ppm [1]: ≥ 80%
- inhibition of growth at 20 ppm [2]: ≥ 80%
- inhibition of growth at 20 ppm [4]: ≥ 80%
- inhibition of growth at 20 ppm [5]: ≥ 80%
- inhibition of growth at 20 ppm (Pythium ultimum): ≥ 80%
- inhibition of growth at 20 ppm (Sclerotinia sclerotiorum): ≥ 80%
- inhibition of growth at 20 ppm [3]: ≥ 80%

Compound: COc1c(C(=O)NCCc2ccccc2)ccc2c1B(O)OC2 [Compound 33, 1-hydroxy-7-methoxy-N-phenethyl-3H-2,1-benzoxaborole-6-carboxamide]
- pest or weed control at 200 ppm [6]: ≥ 80%
- inhibition of growth at 20 ppm [2]: ≥ 80%

Compound: COc1c(C(=O)OCCOC(C)C)ccc2c1B(O)OC2 [Compound 109, 2-isopropoxyethyl 1-hydroxy-7-methoxy-3H-2,1-benzoxaborole-6-carboxylate]
- inhibition of growth at 20 ppm (Gaeumannomyces graminis): ≥ 80%
- inhibition of growth at 20 ppm [2]: ≥ 80%
- inhibition of growth at 20 ppm (Pythium ultimum): ≥ 80%
- pest or weed control at 200 ppm (Phytophthora infestans): ≥ 80%

Compound: COc1c(C(=O)NC(C)C)ccc2c1B(O)OC2 [Compound 34, 1-hydroxy-N-isopropyl-7-methoxy-3H-2,1-benzoxaborole-6-carboxamide]
- pest or weed control at 200 ppm [6]: ≥ 80%
- inhibition of growth at 20 ppm (Pythium ultimum): ≥ 80%

Compound: CCC1=NC(C)(COC(=O)c2ccc3c(c2OC)B(O)OC3)CO1 (centres unmarked) [Compound 99, (2-ethyl-4-methyl-5H-oxazol-4-yl)methyl 1-hydroxy-7-methoxy-3H-2,1-benzoxaborole-6-carboxylate]
- inhibition of growth at 20 ppm (Gaeumannomyces graminis): ≥ 80%
- inhibition of growth at 20 ppm [1]: ≥ 80%
- inhibition of growth at 20 ppm [2]: ≥ 80%
- inhibition of growth at 20 ppm [4]: ≥ 80%
- inhibition of growth at 20 ppm [5]: ≥ 80%
- inhibition of growth at 20 ppm (Pythium ultimum): ≥ 80%
- inhibition of growth at 20 ppm (Sclerotinia sclerotiorum): ≥ 80%
- inhibition of growth at 20 ppm [3]: ≥ 80%

Compound: CCOc1c(C(=O)OC)ccc2c1B(O)OC2 [Compound 4, methyl 7-ethoxy-1-hydroxy-3H-2,1-benzoxaborole-6-carboxylate]
- inhibition of growth at 20 ppm (Gaeumannomyces graminis): ≥ 80%
- inhibition of growth at 20 ppm [1]: ≥ 80%
- inhibition of growth at 20 ppm [2]: ≥ 80%
- inhibition of growth at 20 ppm [4]: ≥ 80%
- inhibition of growth at 20 ppm [5]: ≥ 80%
- inhibition of growth at 20 ppm (Pythium ultimum): ≥ 80%
- inhibition of growth at 20 ppm (Sclerotinia sclerotiorum): ≥ 80%
- inhibition of growth at 20 ppm [3]: ≥ 80%

Compound: COc1c(C(=O)NCc2ccccc2F)ccc2c1B(O)OC2 [Compound 5, N-[(2-fluorophenyl)methyl]-1-hydroxy-7-methoxy-3H-2,1-benzoxaborole-6-carboxamide]
- pest or weed control at 200 ppm [6]: ≥ 80%
- inhibition of growth at 20 ppm (Pythium ultimum): ≥ 80%

Compound: CNC(=O)c1ccc2c(c1OC)B(O)OC2 [Compound 8, 1-hydroxy-7-methoxy-N-methyl-3H-2,1-benzoxaborole-6-carboxamide]
- pest or weed control at 200 ppm [6]: ≥ 80%
- inhibition of growth at 20 ppm [5]: ≥ 80%
- inhibition of growth at 20 ppm (Pythium ultimum): ≥ 80%

Compound: COC(=O)C#CCOC(=O)c1ccc2c(c1OC)B(O)OC2 [Compound 79, (4-methoxy-4-oxo-but-2-ynyl) 1-hydroxy-7-methoxy-3H-2,1-benzoxaborole-6-carboxylate]
- inhibition of growth at 20 ppm (Gaeumannomyces graminis): ≥ 80%
- inhibition of growth at 20 ppm [1]: ≥ 80%
- inhibition of growth at 20 ppm [2]: ≥ 80%
- inhibition of growth at 20 ppm [4]: ≥ 80%
- inhibition of growth at 20 ppm [5]: ≥ 80%
- inhibition of growth at 20 ppm (Pythium ultimum): ≥ 80%
- inhibition of growth at 20 ppm (Sclerotinia sclerotiorum): ≥ 80%
- inhibition of growth at 20 ppm [3]: ≥ 80%

Compound: COc1c(C(=O)OCn2cccn2)ccc2c1B(O)OC2 [Compound 86, pyrazol-1-ylmethyl 1-hydroxy-7-methoxy-3H-2,1-benzoxaborole-6-carboxylate]
- inhibition of growth at 20 ppm (Gaeumannomyces graminis): ≥ 80%
- inhibition of growth at 20 ppm [1]: ≥ 80%
- inhibition of growth at 20 ppm [2]: ≥ 80%
- inhibition of growth at 20 ppm [4]: ≥ 80%
- inhibition of growth at 20 ppm [5]: ≥ 80%
- inhibition of growth at 20 ppm (Pythium ultimum): ≥ 80%
- inhibition of growth at 20 ppm (Sclerotinia sclerotiorum): ≥ 80%
- inhibition of growth at 20 ppm [3]: ≥ 80%
- pest or weed control at 200 ppm (Phytophthora infestans): ≥ 80%

Compound: COc1c(C(=O)Nc2cnoc2)ccc2c1B(O)OC2 [Compound 35, 1-hydroxy-N-isoxazol-4-yl-7-methoxy-3H-2,1-benzoxaborole-6-carboxamide]
- pest or weed control at 200 ppm [6]: ≥ 80%
- inhibition of growth at 20 ppm (Pythium ultimum): ≥ 80%

Compound: COc1c(C(=O)NCc2ccc(Cl)cc2)ccc2c1B(O)OC2 [Compound 6, N-[(4-chlorophenyl)methyl]-1-hydroxy-7-methoxy-3H-2,1-benzoxaborole-6-carboxamide]
- inhibition of growth at 20 ppm (Gaeumannomyces graminis): ≥ 80%
- pest or weed control at 200 ppm [6]: ≥ 80%
- inhibition of growth at 20 ppm [2]: ≥ 80%
- inhibition of growth at 20 ppm (Pythium ultimum): ≥ 80%

Compound: COc1c(C(=O)OCC#Cc2ccccc2)ccc2c1B(O)OC2 [Compound 132, 3-phenylprop-2-ynyl 1-hydroxy-7-methoxy-3H-2,1-benzoxaborole-6-carboxylate]
- inhibition of growth at 20 ppm (Gaeumannomyces graminis): ≥ 80%
- pest or weed control at 200 ppm [6]: ≥ 80%
- inhibition of growth at 20 ppm [1]: ≥ 80%
- inhibition of growth at 20 ppm [2]: ≥ 80%
- inhibition of growth at 20 ppm (Pythium ultimum): ≥ 80%
- inhibition of growth at 20 ppm [3]: ≥ 80%

Compound: COc1c(C(=O)O)ccc2c1B(O)OC2 [Compound 131, 1-hydroxy-7-methoxy-3H-2,1-benzoxaborole-6-carboxylic acid]
- melting point: 181 to 182.4 °C

From patent publication US20180244699A1, “1-HYDROXY-3H-2,1-BENZOXABOROLE DERIVATIVES AND THEIR USE AS MICROBIOCIDES” (Syngenta Participations AG, priority 2015, published 2018)
